According to article doi:10.1101/2023.03.24.534094v2 (biorxiv, 2023):
Like-named read-outs stand apart in the source and are kept apart here. Each block holds one molecule with its values, some of them ahead of it.

How the values were obtained:
Assay in all cases: biochemical
BRPF1 = biological target: T1, BRPF1 (Homo sapiens, UniProt P55201)
T1 sequence (P55201 1-1214): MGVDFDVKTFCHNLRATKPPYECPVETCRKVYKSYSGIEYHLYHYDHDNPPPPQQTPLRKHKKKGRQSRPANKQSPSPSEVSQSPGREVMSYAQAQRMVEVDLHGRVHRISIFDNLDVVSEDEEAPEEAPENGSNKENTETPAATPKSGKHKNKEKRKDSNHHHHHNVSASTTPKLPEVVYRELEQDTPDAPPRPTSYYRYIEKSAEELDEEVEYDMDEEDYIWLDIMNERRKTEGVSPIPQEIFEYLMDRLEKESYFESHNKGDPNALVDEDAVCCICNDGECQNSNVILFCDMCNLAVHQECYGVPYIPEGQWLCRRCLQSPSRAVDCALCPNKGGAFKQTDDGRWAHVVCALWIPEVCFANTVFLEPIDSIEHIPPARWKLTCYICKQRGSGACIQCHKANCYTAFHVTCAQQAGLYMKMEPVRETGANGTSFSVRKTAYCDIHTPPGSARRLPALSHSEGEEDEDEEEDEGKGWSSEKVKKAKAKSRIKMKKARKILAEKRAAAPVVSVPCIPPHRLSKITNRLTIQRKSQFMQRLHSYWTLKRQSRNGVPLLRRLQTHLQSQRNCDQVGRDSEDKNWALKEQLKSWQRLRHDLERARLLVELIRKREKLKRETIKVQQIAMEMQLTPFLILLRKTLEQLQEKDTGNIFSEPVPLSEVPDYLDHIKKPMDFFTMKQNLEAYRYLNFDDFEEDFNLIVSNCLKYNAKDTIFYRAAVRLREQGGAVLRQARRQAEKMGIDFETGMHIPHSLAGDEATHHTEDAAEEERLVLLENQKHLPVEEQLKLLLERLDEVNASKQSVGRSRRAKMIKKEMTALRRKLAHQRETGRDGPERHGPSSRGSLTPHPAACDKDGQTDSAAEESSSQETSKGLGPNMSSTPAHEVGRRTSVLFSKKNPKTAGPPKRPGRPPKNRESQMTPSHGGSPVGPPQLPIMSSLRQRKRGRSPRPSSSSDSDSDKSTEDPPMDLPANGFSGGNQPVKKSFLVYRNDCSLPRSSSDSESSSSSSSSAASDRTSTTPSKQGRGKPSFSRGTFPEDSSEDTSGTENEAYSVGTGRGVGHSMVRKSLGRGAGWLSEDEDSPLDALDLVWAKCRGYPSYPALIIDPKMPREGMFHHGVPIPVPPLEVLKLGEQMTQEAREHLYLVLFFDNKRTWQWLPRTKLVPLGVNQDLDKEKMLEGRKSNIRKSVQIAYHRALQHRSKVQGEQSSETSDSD

CaMK2b = CaMK2b (Homo sapiens, UniProt Q13554)
BRAF = BRAF (Homo sapiens, UniProt P15056)
CK2a2 = CK2a2 (Homo sapiens, UniProt P19784)
EphB3 = biological target: T2, EphB3 (Homo sapiens, UniProt P54753)
T2 sequence (P54753 1-998): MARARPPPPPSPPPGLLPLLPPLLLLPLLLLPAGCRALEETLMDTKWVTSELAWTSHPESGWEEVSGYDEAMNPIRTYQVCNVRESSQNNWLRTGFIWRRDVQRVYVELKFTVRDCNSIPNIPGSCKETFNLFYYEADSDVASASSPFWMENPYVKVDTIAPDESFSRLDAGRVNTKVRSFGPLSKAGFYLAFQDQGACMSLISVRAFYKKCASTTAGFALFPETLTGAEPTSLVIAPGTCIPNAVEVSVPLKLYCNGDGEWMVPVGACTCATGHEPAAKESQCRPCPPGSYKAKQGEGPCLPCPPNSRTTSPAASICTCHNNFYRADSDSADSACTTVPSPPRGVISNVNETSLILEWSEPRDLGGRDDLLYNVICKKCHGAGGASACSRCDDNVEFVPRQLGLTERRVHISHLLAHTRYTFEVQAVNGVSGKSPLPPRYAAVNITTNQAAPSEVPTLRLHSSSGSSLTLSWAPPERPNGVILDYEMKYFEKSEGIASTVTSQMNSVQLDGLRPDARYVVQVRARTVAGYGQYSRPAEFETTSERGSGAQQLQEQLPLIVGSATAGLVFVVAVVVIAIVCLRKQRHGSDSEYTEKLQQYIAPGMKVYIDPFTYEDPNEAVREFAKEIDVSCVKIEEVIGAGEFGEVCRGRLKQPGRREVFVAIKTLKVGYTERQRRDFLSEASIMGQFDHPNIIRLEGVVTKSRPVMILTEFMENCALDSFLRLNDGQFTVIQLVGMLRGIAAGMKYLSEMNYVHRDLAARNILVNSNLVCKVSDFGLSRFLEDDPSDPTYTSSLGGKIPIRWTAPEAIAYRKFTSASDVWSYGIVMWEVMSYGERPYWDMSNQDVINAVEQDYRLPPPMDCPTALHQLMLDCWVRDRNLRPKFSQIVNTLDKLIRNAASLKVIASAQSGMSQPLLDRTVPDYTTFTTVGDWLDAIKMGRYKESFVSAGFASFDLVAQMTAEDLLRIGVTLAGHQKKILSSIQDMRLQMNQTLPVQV

PCTAIRE1 = PCTAIRE1 (Homo sapiens, UniProt Q00536)
EphA7 = EphA7 (Homo sapiens, UniProt Q15375)
FGFR2 = FGFR2 (Homo sapiens, UniProt P21802)
Chain of FGFR2 (P21802 whole entry): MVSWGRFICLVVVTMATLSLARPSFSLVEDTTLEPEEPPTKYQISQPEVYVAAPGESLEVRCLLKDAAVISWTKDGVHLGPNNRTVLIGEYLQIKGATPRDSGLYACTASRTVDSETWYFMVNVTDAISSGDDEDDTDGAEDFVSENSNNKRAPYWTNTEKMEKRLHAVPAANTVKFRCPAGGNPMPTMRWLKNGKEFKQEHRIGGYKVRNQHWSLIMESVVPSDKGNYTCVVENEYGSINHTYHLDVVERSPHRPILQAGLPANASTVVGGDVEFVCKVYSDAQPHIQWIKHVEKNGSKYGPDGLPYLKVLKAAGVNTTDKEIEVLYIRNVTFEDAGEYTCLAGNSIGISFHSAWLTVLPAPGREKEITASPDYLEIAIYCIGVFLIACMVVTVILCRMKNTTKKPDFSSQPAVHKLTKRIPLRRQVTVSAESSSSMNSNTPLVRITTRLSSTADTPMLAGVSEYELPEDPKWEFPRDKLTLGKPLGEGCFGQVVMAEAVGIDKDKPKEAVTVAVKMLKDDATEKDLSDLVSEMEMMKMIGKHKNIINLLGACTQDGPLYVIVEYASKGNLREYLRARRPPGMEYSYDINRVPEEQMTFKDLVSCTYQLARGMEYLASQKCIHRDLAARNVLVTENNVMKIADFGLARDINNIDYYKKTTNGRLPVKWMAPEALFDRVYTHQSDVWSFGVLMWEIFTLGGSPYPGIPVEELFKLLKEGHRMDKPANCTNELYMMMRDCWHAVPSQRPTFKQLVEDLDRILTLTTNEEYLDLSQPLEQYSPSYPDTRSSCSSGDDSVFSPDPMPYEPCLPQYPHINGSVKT

Chain of BRAF (P15056 whole entry): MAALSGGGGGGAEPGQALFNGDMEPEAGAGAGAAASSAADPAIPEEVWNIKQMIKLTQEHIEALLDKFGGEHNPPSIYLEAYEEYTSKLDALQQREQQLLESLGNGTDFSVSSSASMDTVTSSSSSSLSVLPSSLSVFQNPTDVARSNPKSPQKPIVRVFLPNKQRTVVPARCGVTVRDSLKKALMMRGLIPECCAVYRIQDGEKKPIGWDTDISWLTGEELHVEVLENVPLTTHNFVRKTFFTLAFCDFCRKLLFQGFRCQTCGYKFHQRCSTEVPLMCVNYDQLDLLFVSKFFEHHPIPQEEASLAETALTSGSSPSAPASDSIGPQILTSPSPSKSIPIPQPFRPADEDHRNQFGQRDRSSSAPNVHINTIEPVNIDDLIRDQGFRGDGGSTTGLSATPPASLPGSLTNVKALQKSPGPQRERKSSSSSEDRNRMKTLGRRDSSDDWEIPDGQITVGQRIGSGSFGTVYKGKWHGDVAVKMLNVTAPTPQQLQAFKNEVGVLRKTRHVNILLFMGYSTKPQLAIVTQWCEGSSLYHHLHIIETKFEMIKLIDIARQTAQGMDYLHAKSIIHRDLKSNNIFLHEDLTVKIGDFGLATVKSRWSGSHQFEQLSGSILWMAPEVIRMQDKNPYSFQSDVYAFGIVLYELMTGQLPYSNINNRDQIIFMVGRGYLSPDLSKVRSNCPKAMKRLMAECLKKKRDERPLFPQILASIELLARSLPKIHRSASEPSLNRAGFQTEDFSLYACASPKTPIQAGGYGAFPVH
Chain of CaMK2b (Q13554 whole entry): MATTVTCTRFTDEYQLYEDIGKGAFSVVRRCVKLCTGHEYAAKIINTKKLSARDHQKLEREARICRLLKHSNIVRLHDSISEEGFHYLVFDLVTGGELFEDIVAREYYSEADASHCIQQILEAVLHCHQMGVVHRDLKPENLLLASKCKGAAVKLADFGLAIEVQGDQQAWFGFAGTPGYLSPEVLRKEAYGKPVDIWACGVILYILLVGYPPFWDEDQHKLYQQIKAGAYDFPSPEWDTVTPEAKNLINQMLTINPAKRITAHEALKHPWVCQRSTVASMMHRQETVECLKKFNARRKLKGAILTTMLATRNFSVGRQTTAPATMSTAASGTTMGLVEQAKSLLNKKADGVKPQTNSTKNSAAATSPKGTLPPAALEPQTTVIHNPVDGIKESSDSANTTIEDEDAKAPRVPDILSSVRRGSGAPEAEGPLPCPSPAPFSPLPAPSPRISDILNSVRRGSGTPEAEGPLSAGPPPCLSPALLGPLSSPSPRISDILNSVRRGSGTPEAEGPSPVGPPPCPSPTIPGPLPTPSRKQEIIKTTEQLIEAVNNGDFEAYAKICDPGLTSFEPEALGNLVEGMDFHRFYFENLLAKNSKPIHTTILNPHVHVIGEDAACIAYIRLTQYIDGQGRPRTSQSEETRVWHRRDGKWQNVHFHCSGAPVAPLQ
Chain of CK2a2 (P19784 whole entry): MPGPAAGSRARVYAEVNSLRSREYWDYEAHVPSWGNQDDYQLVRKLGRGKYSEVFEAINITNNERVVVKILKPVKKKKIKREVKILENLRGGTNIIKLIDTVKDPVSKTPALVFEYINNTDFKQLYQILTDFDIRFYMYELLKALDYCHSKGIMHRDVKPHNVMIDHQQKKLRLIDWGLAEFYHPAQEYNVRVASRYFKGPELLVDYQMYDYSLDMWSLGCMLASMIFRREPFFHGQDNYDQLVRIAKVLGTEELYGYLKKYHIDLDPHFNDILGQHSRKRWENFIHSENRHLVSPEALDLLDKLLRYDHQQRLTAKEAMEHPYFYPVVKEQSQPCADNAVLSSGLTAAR
Chain of PCTAIRE1 (Q00536 whole entry): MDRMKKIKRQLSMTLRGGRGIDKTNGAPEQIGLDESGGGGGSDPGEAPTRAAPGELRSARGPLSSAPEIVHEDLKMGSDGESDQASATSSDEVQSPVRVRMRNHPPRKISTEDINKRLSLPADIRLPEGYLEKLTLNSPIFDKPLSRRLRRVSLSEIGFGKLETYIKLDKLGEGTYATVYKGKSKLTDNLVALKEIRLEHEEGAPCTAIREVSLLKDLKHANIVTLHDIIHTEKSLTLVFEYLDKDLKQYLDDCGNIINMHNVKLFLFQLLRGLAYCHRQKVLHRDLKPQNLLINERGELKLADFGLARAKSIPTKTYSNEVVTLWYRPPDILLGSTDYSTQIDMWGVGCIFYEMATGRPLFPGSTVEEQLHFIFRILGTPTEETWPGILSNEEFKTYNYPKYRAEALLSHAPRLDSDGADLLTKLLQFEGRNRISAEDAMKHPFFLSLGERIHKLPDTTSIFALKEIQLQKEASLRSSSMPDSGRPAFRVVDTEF
Chain of EphA7 (Q15375 whole entry): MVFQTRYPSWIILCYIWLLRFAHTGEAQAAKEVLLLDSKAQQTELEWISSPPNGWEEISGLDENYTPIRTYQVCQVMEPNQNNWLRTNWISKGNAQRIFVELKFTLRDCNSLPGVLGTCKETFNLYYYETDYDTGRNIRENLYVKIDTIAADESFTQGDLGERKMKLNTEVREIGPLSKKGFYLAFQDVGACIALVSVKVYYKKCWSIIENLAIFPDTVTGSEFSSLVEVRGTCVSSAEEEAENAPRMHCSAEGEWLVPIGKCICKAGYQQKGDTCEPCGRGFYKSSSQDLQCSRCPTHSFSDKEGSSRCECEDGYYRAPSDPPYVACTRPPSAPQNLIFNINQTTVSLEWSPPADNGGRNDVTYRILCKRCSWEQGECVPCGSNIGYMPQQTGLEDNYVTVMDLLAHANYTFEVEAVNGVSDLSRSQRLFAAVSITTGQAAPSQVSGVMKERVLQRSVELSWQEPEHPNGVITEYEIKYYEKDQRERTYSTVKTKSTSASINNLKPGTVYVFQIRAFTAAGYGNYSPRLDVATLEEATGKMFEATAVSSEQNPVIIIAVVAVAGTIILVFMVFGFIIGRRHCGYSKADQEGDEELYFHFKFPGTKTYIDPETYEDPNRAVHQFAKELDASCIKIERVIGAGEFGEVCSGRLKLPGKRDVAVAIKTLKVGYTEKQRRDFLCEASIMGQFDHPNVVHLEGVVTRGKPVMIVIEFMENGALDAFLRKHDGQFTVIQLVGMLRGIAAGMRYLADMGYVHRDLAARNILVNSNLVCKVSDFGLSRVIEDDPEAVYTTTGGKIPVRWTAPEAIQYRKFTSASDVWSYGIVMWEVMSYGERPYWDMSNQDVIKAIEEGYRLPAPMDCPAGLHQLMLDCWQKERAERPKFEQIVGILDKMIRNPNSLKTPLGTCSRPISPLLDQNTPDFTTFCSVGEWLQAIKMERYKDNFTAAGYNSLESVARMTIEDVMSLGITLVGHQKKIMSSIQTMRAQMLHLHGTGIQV

Compound: CNc1ncc2cc(-c3ccc(-c4cccc(C)n4)cc3Cl)c(=O)n(CC3OCC(N)CO3)c2n1 (stereo not shown) [compound 2, G-5555]
dTm G-5555 (2) (BRPF1; 10 µM, binder): 0.8 °C
dTm G-5555 (2) (CaMK2b; 10 µM, binder): -1.7 °C
dTm G-5555 (2) (BRAF; 10 µM, binder): 3.9 °C
dTm G-5555 (2) (CK2a2; 10 µM, binder): -0.6 °C
dTm G-5555 (2) (EphB3; 10 µM, binder): 1.7 °C
dTm G-5555 (2) (PCTAIRE1; 10 µM, binder): 1.3 °C
dTm G-5555 (2) (EphA7; 10 µM, binder): 4.1 °C
dTm G-5555 (2) (FGFR2; 10 µM, binder): 0.7 °C

Compound: CNc1ncc2cc(-c3cc(F)ccc3F)c(=O)n(CCCCN)c2n1 [compound 5, 8-(4-Aminobutyl)-6-(2,5-difluorophenyl)-2-(methylamino)pyrido[2,3-d]pyrimidin-7(8H)-one]
ΔTm at 10 µM (BRPF1; read-out: dTm MR22 (5)): -1 °C
ΔTm at 10 µM (CaMK2b; read-out: dTm MR22 (5)): -0.6 °C
ΔTm at 10 µM (BRAF; read-out: dTm MR22 (5)): 9.2 °C
ΔTm at 10 µM (CK2a2; read-out: dTm MR22 (5)): -1 °C
ΔTm at 10 µM (EphB3; read-out: dTm MR22 (5)): 3.3 °C
ΔTm at 10 µM (PCTAIRE1; read-out: dTm MR22 (5)): 0.3 °C
ΔTm at 10 µM (EphA7; read-out: dTm MR22 (5)): -1.6 °C
ΔTm at 10 µM (FGFR2; read-out: dTm MR22 (5)): 3.7 °C

Compound: CNc1ncc2cc(-c3ccccc3Cl)c(=O)n(CCCCN)c2n1 [compound 4, 8-(4-Aminobutyl)-6-(2-chlorophenyl)-2-(methylamino)pyrido[2,3-d]pyrimidin-7(8H)-one]
ΔTm at 10 µM (BRPF1; read-out: dTm MR21 (4)): 0.7 °C
ΔTm at 10 µM (CaMK2b; read-out: dTm MR21 (4)): -1.1 °C
ΔTm at 10 µM (BRAF; read-out: dTm MR21 (4)): 12.2 °C
ΔTm at 10 µM (CK2a2; read-out: dTm MR21 (4)): -0.3 °C
ΔTm at 10 µM (EphB3; read-out: dTm MR21 (4)): 6 °C
ΔTm at 10 µM (PCTAIRE1; read-out: dTm MR21 (4)): 1.8 °C
ΔTm at 10 µM (EphA7; read-out: dTm MR21 (4)): 1.8 °C
ΔTm at 10 µM (FGFR2; read-out: dTm MR21 (4)): 4.7 °C

The remaining lines, values ahead:

ΔTm at 10 µM (BRPF1; read-out: dTm 7): -0.7 °C
ΔTm at 10 µM (CaMK2b; read-out: dTm 7): 0.2 °C
ΔTm at 10 µM (BRAF; read-out: dTm 7): 8.3 °C
ΔTm at 10 µM (CK2a2; read-out: dTm 7): 0.1 °C
ΔTm at 10 µM (EphB3; read-out: dTm 7): 2.5 °C
ΔTm at 10 µM (PCTAIRE1; read-out: dTm 7): 0.1 °C
ΔTm at 10 µM (EphA7; read-out: dTm 7): -0.5 °C
ΔTm at 10 µM (FGFR2; read-out: dTm 7): 3.7 °C
Compound: CNc1ncc2cc(-c3cc(Br)ccc3Cl)c(=O)n(C[C@H]3OC[C@H](N)CO3)c2n1 [compound 7, 8-(((2r,5r)-5-Amino-1,3-dioxan-2-yl)methyl)-6-(5-bromo-2-chlorophenyl)-2-(methylamino)pyrido[2,3-d]pyrimidin-7(8H)-one]

ΔTm at 10 µM (BRPF1; read-out: dTm 6): 0.3 °C
ΔTm at 10 µM (CaMK2b; read-out: dTm 6): 0.1 °C
ΔTm at 10 µM (BRAF; read-out: dTm 6): 10.8 °C
ΔTm at 10 µM (CK2a2; read-out: dTm 6): -0.1 °C
ΔTm at 10 µM (EphB3; read-out: dTm 6): 3.5 °C
ΔTm at 10 µM (PCTAIRE1; read-out: dTm 6): 1.1 °C
ΔTm at 10 µM (EphA7; read-out: dTm 6): 2.7 °C
ΔTm at 10 µM (FGFR2; read-out: dTm 6): 4.1 °C
Compound: CNc1ncc2cc(-c3cc(Br)ccc3Cl)c(=O)n(CCCCN)c2n1 [compound 6, 8-(4-Aminobutyl)-6-(5-bromo-2-chlorophenyl)-2-(methylamino)pyrido[2,3-d]pyrimidin-7(8H)-one]
